The subject of this assay is CEM cells HIV-1 protection, formazan growth assay. Briefly: NCI AIDS Antiviral Assay. To be noted: for pIC50: measured here: growth of uninfected CEM cells. The method, then:
The ability of compounds to protect human CEM cells from HIV-1 infection is measured as a screen for new compounds capable of inhibiting the HIV virus. Five concentrations of drug were tested on uninfected and infected cells and cell growth was measured using a soluble formazan assay. […] Compounds that provided at least 50% protection were retested. Compounds that provided at least 50% protection on retest were listed as moderately active. Compounds that reproducibly provided 100% protection were listed as confirmed active. […] Note that the inability to provide protection could be due to toxicity.

pEC50, pIC50: −log10 of the molar value. Calls of active or inactive are those of the source.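 The calls were made as follows: active = compounds giving half or more protection of infected cells from virus-caused growth loss, again on retest; inactive = the rest.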 Where a SMILES comes first, the peptide text is derived from it.

With `CC(C)(C)COC(=O)NS(=O)(=O)Nc1ccccc1`, the pEC50 was less than 3.70 and the pIC50 was less than 3.70. Turning to `O=C(Cc1ccccc1)NN1C(=O)C(Cl)C1c1ccc(O)cc1` (centres undefined), the pEC50 was less than 3.69 and the pIC50 was 3.77. Regarding `C[C@@]1(O)C2CC3CC1(c1ccccc1)CC(/C3=N/O)/C2=N\O` (some centres undefined), the pEC50 is less than 3.70 and the pIC50 is less than 3.70. In the case of `O=[N+]([O-])c1cccc2nccc(NCCN3CCOCC3)c12`, the pEC50 was less than 3.70 and the pIC50 is 5.00.

As for `S=C1NCCNC(=S)SSC(=S)SS1`, the pEC50 is less than 5.63 and the pIC50 was less than 5.63. Turning to `O=CC12C3CCC1C2C(=O)C3` (centres undefined), the outcome was inactive and the pIC50 was less than 3.70. Regarding `C[C@@H]1C[C@H](C)S(=O)[C@H](C)S1` (some centres undefined), the pEC50 was less than 2.85 and the pIC50 is less than 2.85. For `CC[C@H]1CN2CCc3c([nH]c4ccccc34)C2C[C@@H]1CCO` (some centres undefined), the pEC50 is less than 3.92 and the pIC50 was less than 3.92. Consider `C#CCOCn1cc(C)c(=O)[nH]c1=O`, for which the pEC50 was less than 3.70 and the pIC50 is less than 3.70.

Turning to `CC1=NC(C)(C)[N+]([O-])=C1`, the result was inactive. Take `NC(CCSCCF)C(=O)O` (centres undefined): the pEC50 is less than 3.16 and the pIC50 is 3.99. Turning to `O=C1c2cccc3cccc(c23)C(=O)N1C(Cc1ccccc1)c1ccccc1` (centres undefined), the pEC50 is less than 3.70 and the pIC50 is less than 3.70. In the case of `O=C(OC1C(OC(=O)c2cccnc2)C(OC(=O)c2cccnc2)C(OC(=O)c2cccnc2)C(OC(=O)c2cccnc2)C1OC(=O)c1cccnc1)c1cccnc1` (centres undefined), the pEC50 was less than 3.70 and the pIC50 is less than 3.70.

As for `COc1ccc(C2c3cc4c(cc3OC(NNc3ccccc3)C2C)OCO4)cc1` (centres undefined), the pEC50 is less than 3.70 and the pIC50 is 4.93. Turning to `O=C1/C(=C/c2ccc(Cl)cc2)COc2ccc(Br)cc21`, the pEC50 was less than 4.83 and the pIC50 was less than 4.83. For `CCOc1ccc(NC(=O)/C(=N\N)C(C(=O)OC)c2nc3ccc(Cl)cc3[nH]c2=O)cc1` (centres undefined), the pEC50 was less than 4.41 and the pIC50 is less than 4.41. For the compound `CCOC(=O)/C=C/C1(CCOC(C)=O)CCCCC1`, the pEC50 is less than 3.70 and the pIC50 is 3.76.

On to `CCN(CC)CC1CN=C(N)O1` (centres undefined), for which the pEC50 is less than 3.70 and the pIC50 was less than 3.70. In the case of `C1OC1CN1CCN(CC2CO2)CC1` (centres undefined), the outcome was inactive.

Turning to `C[Si](C)(c1ccccc1)C1CC(=O)CC(=O)C1`, the pEC50 was less than 3.42 and the pIC50 is 3.61. Turning to `Nc1ccc2c3c1cccc3c(=O)n1c3ccc(Cc4ccc5c(c4)nc4c6ccc(N)c7cccc(c(=O)n54)c76)cc3nc21`, the pEC50 was less than 4.00.

For `CC(C)CC(NC(=O)C(Cc1cnc[nH]1)NC(=O)C(CC(N)=O)NC(=O)C(NC(=O)C(CO)NC(=O)C(Cc1ccc(O)cc1)NC(=O)C(CO)NC(=O)C(C)NC(=O)C(CCCCN)NC(=O)C(N)CC(=O)O)C(C)O)C(=O)O` (centres undefined) (H-DKASYSTNHL-OH; configuration not given here), the pEC50 is less than 4.26 and the pIC50 is less than 4.26. For the compound `COCC[P+](c1ccccc1)(c1ccccc1)c1ccccc1`, the pEC50 is less than 3.70 and the pIC50 was 5.11. With `CC(=O)Nc1ccc(C=Nc2ccc(SSc3ccc(N=Cc4ccc(NC(C)=O)cc4)cc3)cc2)cc1`, the pEC50 is less than 3.70 and the pIC50 was 4.63. For `CC[N+]1(C)CCC(O)(c2ccc(Cl)c(Cl)c2)C(C(=O)c2ccc(Cl)c(Cl)c2)C1` (centres undefined), in that order: less than 3.70 and 4.65. As for `O=C1CCCCCCCCCCC(=O)N2CCOCCOCCN1Cc1cccc(n1)C2`, the pEC50 was less than 3.39 and the pIC50 was 3.50. As to `CCN(CC)CCSc1c2ccccc2nc2c(OC)ccc(OC)c12`, the result was inactive. `CCOC(=O)/C=C/c1ccc([N+](=O)[O-])cc1`: the pEC50 is less than 4.49 and the pIC50 was less than 4.49.

On to `C[C@H](NC(=O)n1c2ccccc2c2ccccc21)C(=O)O`, for which the pEC50 was less than 3.05 and the pIC50 is 3.63.

A word on the pEC50: it is −log10 of the EC50, conventionally taken in molar units. As a reminder, the pIC50 is the IC50 on a negative log10 scale, so that one unit is a factor of ten.
